{
  "source": "patent US20240148757A1",
  "about": "“USE OF DIHYDROOROTATE DEHYDROGENASE (DHODH) INHIBITORS TO TARGET FERROPTOSIS IN CANCER THERAPY” (BOARD OF REGENTS, THE UNIVERSITY OF TEXAS SYSTEM, priority 2021, published 2024)",
  "key": {"[1]": {"tested_on": "GPX4 knockdown HT-1080 cells with DHODH deletion", "assay": "Lipid peroxidation and ferroptosis in DHODH KO, GPX4 knockdown HT-1080 cells", "type": "cell-based, human", "description": "Knockout of DHODH, ACSL4 and COQ2 in human cell lines was performed using single guide RNAs (sgRNAs) and doxycycline (DOX)-inducible CRISPR-Cas9 expression system as described in our recent publication (Lee, H., et al., Nature cell biology 22, 225-234 (2020)). sgRNAs were cloned into the lentiviral lentiGuide vector. LentiGuide clones were transfected into HEK293T cells with psPAX2 packaging plasmid and pMD2.G expressing plasmid. Cells were infected with lentivirus with 0.8 μg/ml polybrene, selected with puromycin (1 μg/ml, InvivoGen), blasticidin (2 μg/ml, InvivoGen) or hygromycin B (2 μg/ml, InvivoGen) for 3 days and then single cells were sorted into 96-well plates. […]\nCells were seeded on 12-well plates and incubated overnight. […] Lipid peroxidation was assessed using the flow cytometer BD Accuri C6 with a 488 nm laser on an FL1 detector. A minimum of 10,000 single cells were analyzed per well.\nCell death was measured by propidium iodide (Roche) staining using a flow cytometer, as previously described (Dai, F., et al., Proc Natl Acad Sci USA 114, 3192-3197 (2017); Zhang, Y., et al., Cancer Res 80, 2243-2256 (2020)). […] A minimum of 10,000 single cells were analyzed per well and all experiments were carried out at least in triplicate."}, "GPX4^low NCI-H226 cells": {"tested_on": "GPX4^low NCI-H226 cells", "assay": "Cell viability / cell death (ferroptosis) in NCI-H226 cells", "type": "cell-based, human", "settings": "BQR; pretreatment Lip-1 or ZVF 10 μM, 24 hours", "description": "Viable cells were measured using Cell Counting Kit-8 (CCK-8, Dojindo) as previously described (Koppula, P., Zhang, Y., Shi, J., Li, W. & Gan, B, J Biol Chem 292, 14240-14249 (2017); Liu, X. & Gan, B, Cell Cycle 15, 3471-3481 (2016)). Briefly, cells were seeded onto 96-well plates at a density of 2×10^4 per well. The next day, cells were treated with GPX4 or DHODH inhibitors for 4 hours. Subsequently, cells exposed to 10 μl CCK-8 reagent (100 μl medium per well) for 1 hour at 37° C., 5% CO2 in an incubator. The absorbance at a wavelength of 450 nm was determined using a FLUOstar Omega microplate reader (BMG Labtech).\nCell death was measured by propidium iodide (Roche) staining using a flow cytometer, as previously described (Dai, F., et al., Proc Natl Acad Sci USA 114, 3192-3197 (2017); Zhang, Y., et al., Cancer Res 80, 2243-2256 (2020)). For propidium iodide-staining, cells were seeded at a density of 50% confluence into 12-well plates. The next day, cells were treated with different reagents. To measure cell death, the cells were collected (including floating dead cells), stained with 5 μg/ml propidium iodide and the percentage of the propidium iodide-positive dead cell population was analyzed using the flow cytometer BD Accuri C6 (BD Biosciences) and an FL2 detector. A minimum of 10,000 single cells were analyzed per well and all experiments were carried out at least in triplicate."}, "[2]": {"tested_on": "GPX4^low NCI-H226 xenografts", "assay": "NCI-H226 xenograft model", "type": "in vivo, athymic nude mice", "settings": "liproxstatin-1 10 mg/kg intraperitoneally daily", "description": "All the xenograft experiments were performed in accordance with a protocol approved by the Institutional Animal Care and Use Committee and Institutional Review Board at The University of Texas MD Anderson Cancer Center. The study is compliant with all relevant ethical regulations regarding animal research. Female 4- to 6-week-old athymic nude mice (Foxn1^nu/Foxn1^nu) were purchased from the Experimental Radiation Oncology Breeding Core Facility at MD Anderson Cancer Center and housed in the Animal Care Facility at the Department of Veterinary Medicine and Surgery at MD Anderson. Cancer cell lines were suspended and counted in cold phosphate-buffered saline (PBS), and 5×10^6 HT-1080 or 1×10^7 NCI-H226 cells were injected into mice subcutaneously. When the tumor reached 50-100 mm^3, the mice were assigned randomly into different treatment groups. Brequinar or sulfasalazine was dissolved in dimethyl sulfoxide (DMSO) and diluted in PBS. Brequinar was intraperitoneally injected into mice at a dose of 30 mg/kg every three days. Sulfasalazine was intraperitoneally injected daily at a dose of 100 mg/kg. Liproxstatin-1 diluted in PBS was intraperitoneally injected daily at a dose of 10 mg/kg. […] The tumor volume was measured every 3 days until the endpoint and calculated according to the equation volume=length×width^2×½."}},
  "data": [
    {"smiles": "Clc1cccc(CN=C2Nc3ccccc3NC23CCNCC3)c1", "note": "[liproxstatin-1]", "values": [
      {"measurement": "rescue of lipid peroxidation and ferroptosis", "setting": "[1]", "value": "could be rescued"},
      {"measurement": "rescue of DHODH inhibition-induced cell death", "setting": "GPX4^low NCI-H226 cells", "value": "largely rescued"},
      {"measurement": "restoration of brequinar-suppressed tumor growth", "setting": "[2]", "value": "could be restored"}
    ]}
  ]
}
